The target in the experiment is urease enzyme from the Jack bean (Canavalia ensiformis) (Canavalia ensiformis, UniProt P07374). Nature of the experiment: In vitro urease assay. The experiment is classed as biochemical.
Chain of urease enzyme from the Jack bean (Canavalia ensiformis) (P07374 whole entry, looked up): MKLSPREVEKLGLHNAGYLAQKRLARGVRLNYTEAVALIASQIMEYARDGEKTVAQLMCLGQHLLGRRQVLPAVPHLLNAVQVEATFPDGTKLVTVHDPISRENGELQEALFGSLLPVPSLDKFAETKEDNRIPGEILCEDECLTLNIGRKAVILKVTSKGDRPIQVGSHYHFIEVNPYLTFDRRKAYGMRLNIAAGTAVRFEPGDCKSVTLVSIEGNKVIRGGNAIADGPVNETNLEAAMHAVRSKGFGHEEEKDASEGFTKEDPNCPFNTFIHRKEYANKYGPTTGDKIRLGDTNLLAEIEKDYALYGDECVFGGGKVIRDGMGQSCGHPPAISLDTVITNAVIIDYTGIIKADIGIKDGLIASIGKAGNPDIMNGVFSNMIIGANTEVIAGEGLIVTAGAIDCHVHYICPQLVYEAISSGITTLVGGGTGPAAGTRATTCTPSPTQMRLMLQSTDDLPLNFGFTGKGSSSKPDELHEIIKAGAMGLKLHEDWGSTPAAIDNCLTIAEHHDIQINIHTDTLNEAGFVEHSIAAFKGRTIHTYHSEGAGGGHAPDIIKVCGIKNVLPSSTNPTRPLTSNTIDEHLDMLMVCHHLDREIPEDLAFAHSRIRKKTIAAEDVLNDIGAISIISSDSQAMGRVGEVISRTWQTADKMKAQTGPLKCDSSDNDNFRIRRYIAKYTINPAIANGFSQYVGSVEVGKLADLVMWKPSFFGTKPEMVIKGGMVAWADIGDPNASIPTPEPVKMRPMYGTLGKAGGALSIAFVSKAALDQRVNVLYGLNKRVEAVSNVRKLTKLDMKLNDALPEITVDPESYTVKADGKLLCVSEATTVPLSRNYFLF

In the case of `Cc1ccc(OCc2nn3c(-c4cccc(Br)c4)nnc3s2)cc1` [compound 4j], the half-maximal inhibitory concentration (IC50) was found to be 4.67 ± 0.15 µM.

The compound `COc1ccc(-c2nnc3sc(COc4ccc(C)cc4)nn23)cc1` [compound 4d] returned a 50% inhibitory concentration (IC50) of 39 ± 0.53 µM.

Regarding `Oc1ccccc1OCc1nn2c(-c3cccc(Br)c3)nnc2s1` [4g], half-maximal inhibition (IC50) required 4.5 ± 0.13 µM.

Compound `COc1ccc(-c2nnc3n2N=C(c2ccc(C)cc2)CS3)cc1` [5d] had a half-inhibitory concentration (IC50) of 5.16 ± 0.14 µM.

Turning to `Brc1cccc(-c2nnc3n2N=C(c2cccc4ccccc24)CS3)c1` [5n], the IC50 came out at 7.2 ± 0.18 µM.

`COc1ccc(-c2nnc3sc(COc4ccc(O)cc4)nn23)cc1` [4b] displayed an IC50 of 25.2 ± 0.56 µM.

Regarding `COc1ccc(-c2nnc3n2N=C(c2ccc(Cl)c(Cl)c2)CS3)cc1` [5h], it took 5.3 ± 0.17 µM to reach half-maximal inhibition (IC50).

On to `Oc1ccc(OCc2nn3c(-c4cccc(Br)c4)nnc3s2)cc1` [4h], for which the IC50 amounted to 6.79 ± 0.24 µM.

On to `Cc1ccc(C2=Nn3c(nnc3-c3cccc(Br)c3)SC2)cc1` [5l], for which inhibition was half-maximal at 5.56 ± 0.12 µM (IC50).

Compound `COc1ccc(-c2nnc3n2N=C(c2ccc(F)cc2)CS3)cc1` [5c] registered a 50% inhibitory concentration (IC50) of 6.93 ± 0.14 µM.

Compound `Cc1ccccc1OCc1nn2c(-c3cccc(Br)c3)nnc2s1` [compound 4i] gave an IC50 of 9.63 ± 0.32 µM.

`Clc1ccc(C2=Nn3c(nnc3-c3cccc(Br)c3)SC2)cc1` [5j] had a half-inhibitory concentration (IC50) of 11.5 ± 0.38 µM.

`COc1ccc(C2=Nn3c(nnc3-c3ccc(OC)cc3)SC2)cc1` [5a] came in with an IC50 of 5.91 ± 0.13 µM.

`COc1ccc(-c2nnc3sc(COc4ccccc4C)nn23)cc1` [compound 4c] returned an IC50 of 12 ± 0.25 µM.

In the case of `COc1ccc(-c2nnc3n2N=C(c2ccc(Cl)cc2)CS3)cc1` [5b], half-maximal inhibition (IC50) required 8.37 ± 0.16 µM.

`O=[N+]([O-])c1ccc(C2=Nn3c(nnc3-c3cccc(Br)c3)SC2)cc1` [5o]: the concentration for half-maximal inhibition (IC50) stood at 7.72 ± 0.31 µM.

Take `Fc1ccc(OCc2nn3c(-c4cccc(Br)c4)nnc3s2)cc1` [compound 4l]: the IC50 came out at 46.8 ± 0.63 µM.

`Fc1ccc(C2=Nn3c(nnc3-c3cccc(Br)c3)SC2)cc1` [compound 5k]: it took 3.33 ± 0.11 µM to reach half-maximal inhibition (IC50). Moreover, where the note is “relative to thiourea IC50”, the “inhibitory potential fold higher than thiourea” value is given as roughly 6.5 fold.

In turn, `Clc1ccc(C2=Nn3c(nnc3-c3cccc(Br)c3)SC2)cc1Cl` [5p] yielded an IC50 of 13 ± 0.37 µM.

In the case of `COc1ccc(C2=Nn3c(nnc3-c3cccc(Br)c3)SC2)cc1` [5i], the IC50 was 9.55 ± 0.41 µM.

In turn, `COc1ccc(-c2nnc3n2N=C(c2cccc4ccccc24)CS3)cc1` [5f] registered an IC50 of 10.5 ± 0.26 µM.
